ChEMBL document CHEMBL1201862, “PubChem BioAssay data set” (2004)
Calls of active or inactive are those of the source.

What was measured:
[1] = target: T1, Sphingosine 1-phosphate receptor 4 (Homo sapiens, UniProt O95977); experiment: Fluorescence dose response cell-based high throughput screening assay for antagonists of the Sphingosine 1-Phosphate Receptor 4 (S1P4). [Related pubchem assays: 1524 (Confirmation in triplicates.), 1510 (Primary screen.)]; type: functional
T1 sequence (O95977 whole entry): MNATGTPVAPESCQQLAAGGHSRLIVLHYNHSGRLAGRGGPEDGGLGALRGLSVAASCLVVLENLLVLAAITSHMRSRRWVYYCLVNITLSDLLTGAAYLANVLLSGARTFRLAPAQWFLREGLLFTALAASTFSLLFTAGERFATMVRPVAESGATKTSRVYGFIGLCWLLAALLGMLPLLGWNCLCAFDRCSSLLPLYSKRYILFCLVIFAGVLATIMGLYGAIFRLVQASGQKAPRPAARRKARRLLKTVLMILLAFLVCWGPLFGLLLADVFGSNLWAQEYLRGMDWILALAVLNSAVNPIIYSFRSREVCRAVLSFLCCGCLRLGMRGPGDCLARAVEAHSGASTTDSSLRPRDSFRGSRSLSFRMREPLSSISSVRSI

[2] = target: Sphingosine 1-phosphate receptor 1 (Homo sapiens, UniProt P21453); type: functional;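 also: Tango beta-arrestin reporter U2OS cells stimulated with S1P near its EC80; inhibitor potency meaning antagonism of receptor activation by the natural agonist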
Chain of Sphingosine 1-phosphate receptor 1 (P21453 whole entry): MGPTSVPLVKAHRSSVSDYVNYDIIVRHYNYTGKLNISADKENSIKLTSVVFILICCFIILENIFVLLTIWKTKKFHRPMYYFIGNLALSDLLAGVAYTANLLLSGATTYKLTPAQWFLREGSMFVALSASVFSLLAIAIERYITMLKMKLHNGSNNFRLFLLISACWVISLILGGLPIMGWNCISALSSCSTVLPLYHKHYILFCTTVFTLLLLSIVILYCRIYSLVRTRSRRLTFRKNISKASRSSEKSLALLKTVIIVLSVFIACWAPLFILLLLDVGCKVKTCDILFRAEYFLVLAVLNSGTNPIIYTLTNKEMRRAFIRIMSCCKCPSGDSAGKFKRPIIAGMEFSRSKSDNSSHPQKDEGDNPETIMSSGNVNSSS

Coagulation factor XII = target: T2, Coagulation factor XII (Homo sapiens, UniProt P00748); type: functional;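 also: activated factor XIIa alpha cleaving a fluorogenic AMC peptide substrate; inhibitor potency from loss of enzyme activity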
T2 sequence (P00748 whole entry): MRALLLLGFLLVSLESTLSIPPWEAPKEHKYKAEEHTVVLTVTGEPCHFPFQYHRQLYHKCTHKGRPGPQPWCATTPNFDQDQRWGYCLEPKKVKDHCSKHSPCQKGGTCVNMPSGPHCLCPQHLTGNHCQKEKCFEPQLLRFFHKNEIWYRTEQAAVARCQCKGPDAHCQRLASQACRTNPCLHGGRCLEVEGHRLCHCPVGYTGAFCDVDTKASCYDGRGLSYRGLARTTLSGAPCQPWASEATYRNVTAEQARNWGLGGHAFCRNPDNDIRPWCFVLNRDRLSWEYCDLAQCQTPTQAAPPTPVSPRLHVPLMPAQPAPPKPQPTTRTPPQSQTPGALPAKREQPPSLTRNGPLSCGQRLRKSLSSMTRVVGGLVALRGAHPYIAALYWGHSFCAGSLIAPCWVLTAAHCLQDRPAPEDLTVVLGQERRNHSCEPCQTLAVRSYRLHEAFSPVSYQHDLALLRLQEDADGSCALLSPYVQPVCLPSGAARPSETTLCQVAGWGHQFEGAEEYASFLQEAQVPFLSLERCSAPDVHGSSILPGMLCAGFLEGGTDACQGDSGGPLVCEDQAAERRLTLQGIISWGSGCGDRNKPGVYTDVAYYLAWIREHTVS

Hexokinase-1 = target: T3, Hexokinase-1 (Homo sapiens, UniProt P19367); experiment: HK1 enzyme activation by HKDC1 hits – biochemical, selectivity assay for HKDC1 activator project, dose response (AID 504762); type: functional
T3 sequence (P19367 whole entry): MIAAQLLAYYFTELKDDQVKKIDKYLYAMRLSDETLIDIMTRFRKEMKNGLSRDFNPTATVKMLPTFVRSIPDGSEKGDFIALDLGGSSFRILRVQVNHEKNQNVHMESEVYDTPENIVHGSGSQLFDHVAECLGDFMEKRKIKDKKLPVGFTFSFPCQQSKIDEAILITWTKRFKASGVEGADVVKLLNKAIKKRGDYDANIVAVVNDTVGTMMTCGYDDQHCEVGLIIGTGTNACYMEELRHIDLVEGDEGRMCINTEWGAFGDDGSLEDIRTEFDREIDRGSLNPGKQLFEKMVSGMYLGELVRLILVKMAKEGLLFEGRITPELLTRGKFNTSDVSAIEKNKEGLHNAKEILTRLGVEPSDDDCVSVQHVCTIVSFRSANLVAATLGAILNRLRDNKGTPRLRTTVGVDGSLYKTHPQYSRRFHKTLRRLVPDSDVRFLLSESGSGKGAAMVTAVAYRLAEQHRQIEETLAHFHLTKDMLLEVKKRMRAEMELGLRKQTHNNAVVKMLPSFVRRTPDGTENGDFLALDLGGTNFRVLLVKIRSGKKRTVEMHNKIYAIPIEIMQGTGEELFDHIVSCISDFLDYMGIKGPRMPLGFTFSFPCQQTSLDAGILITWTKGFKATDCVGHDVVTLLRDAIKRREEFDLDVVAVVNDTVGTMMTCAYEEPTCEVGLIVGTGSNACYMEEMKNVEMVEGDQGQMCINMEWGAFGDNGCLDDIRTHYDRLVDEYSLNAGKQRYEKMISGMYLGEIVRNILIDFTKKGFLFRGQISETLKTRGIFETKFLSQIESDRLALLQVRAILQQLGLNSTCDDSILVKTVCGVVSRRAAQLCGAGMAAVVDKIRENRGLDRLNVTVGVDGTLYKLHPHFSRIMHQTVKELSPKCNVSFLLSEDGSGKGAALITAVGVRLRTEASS

[3] = Luminescence Cell-Based Dose Response HTS to Identify Inhibitors of 5'UTR Stem-Loop Driven Prion Protein mRNA Translation in H4 Neuroglioblastoma Cells. [Related pubchem assays: 1827 (Project Summary), 1813 (Primary HTS)]; type: functional
[4] = viability of PTEN-deleted HCT116 cells – cell-based, HCT116 PTEN knockout, dose response (AID 1047); type: functional;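 also: HCT116 colon tumor cells with PTEN knocked out; cells exposed to compound for 60 hours before readout; potency for loss of cell viability measured by luminescence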
[5] = non-specific 3'UTR reporter inhibition in Clone20-Shn3RL – cell-based, Renilla luciferase, cherry-picked, counter-screen for Shn3 inhibitor project, dose response (AID 624133); type: functional
Paired box protein Pax-8 = Paired box protein Pax-8 (Homo sapiens, UniProt Q06710); experiment: PAX8 transcriptional activity inhibition in RMG-I – RMG-I cells, luciferase, cherry-pick, dose response (AID 687027); type: functional, cell-based;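 also: luciferase reporter driven by Pax8 target thyroperoxidase promoter measured by SteadyGlo luminescence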
Chain of Paired box protein Pax-8 (Q06710 whole entry): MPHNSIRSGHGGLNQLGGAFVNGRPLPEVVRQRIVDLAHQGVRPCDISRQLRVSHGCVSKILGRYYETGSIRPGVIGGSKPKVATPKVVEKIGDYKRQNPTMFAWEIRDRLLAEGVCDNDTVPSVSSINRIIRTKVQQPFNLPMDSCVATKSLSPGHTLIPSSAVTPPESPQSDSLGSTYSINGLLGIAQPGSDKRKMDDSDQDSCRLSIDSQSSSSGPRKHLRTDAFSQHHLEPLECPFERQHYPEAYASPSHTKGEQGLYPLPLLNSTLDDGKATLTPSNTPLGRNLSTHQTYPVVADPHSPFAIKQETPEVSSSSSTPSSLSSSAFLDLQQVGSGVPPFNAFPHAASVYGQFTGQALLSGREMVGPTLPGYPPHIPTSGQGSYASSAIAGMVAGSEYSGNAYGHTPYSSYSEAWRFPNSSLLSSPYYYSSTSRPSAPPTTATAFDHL

[6] = target: Mitogen-activated protein kinase 1 (Homo sapiens, UniProt P28482); type: functional
Chain of Mitogen-activated protein kinase 1 (P28482 whole entry): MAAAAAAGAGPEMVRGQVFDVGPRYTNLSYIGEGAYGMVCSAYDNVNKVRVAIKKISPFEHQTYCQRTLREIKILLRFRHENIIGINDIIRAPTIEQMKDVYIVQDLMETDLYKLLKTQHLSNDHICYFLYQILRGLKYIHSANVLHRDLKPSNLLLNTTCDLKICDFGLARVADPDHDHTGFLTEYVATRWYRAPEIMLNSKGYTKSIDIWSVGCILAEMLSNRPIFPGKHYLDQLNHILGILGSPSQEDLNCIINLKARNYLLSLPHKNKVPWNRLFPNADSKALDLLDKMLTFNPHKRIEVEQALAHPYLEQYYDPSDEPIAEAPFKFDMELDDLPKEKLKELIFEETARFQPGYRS

[7] = target: Serine/threonine-protein kinase Chk2 (Homo sapiens, UniProt O96017); type: functional;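 also: CHEK2 entry within a kinome-wide screening panel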
Activated CDC42 kinase 1 = Activated CDC42 kinase 1 (Homo sapiens, UniProt Q07912); experiment: Navigating the Kinome. Panel member name: ACK1; type: functional
Chain of Activated CDC42 kinase 1 (Q07912 whole entry): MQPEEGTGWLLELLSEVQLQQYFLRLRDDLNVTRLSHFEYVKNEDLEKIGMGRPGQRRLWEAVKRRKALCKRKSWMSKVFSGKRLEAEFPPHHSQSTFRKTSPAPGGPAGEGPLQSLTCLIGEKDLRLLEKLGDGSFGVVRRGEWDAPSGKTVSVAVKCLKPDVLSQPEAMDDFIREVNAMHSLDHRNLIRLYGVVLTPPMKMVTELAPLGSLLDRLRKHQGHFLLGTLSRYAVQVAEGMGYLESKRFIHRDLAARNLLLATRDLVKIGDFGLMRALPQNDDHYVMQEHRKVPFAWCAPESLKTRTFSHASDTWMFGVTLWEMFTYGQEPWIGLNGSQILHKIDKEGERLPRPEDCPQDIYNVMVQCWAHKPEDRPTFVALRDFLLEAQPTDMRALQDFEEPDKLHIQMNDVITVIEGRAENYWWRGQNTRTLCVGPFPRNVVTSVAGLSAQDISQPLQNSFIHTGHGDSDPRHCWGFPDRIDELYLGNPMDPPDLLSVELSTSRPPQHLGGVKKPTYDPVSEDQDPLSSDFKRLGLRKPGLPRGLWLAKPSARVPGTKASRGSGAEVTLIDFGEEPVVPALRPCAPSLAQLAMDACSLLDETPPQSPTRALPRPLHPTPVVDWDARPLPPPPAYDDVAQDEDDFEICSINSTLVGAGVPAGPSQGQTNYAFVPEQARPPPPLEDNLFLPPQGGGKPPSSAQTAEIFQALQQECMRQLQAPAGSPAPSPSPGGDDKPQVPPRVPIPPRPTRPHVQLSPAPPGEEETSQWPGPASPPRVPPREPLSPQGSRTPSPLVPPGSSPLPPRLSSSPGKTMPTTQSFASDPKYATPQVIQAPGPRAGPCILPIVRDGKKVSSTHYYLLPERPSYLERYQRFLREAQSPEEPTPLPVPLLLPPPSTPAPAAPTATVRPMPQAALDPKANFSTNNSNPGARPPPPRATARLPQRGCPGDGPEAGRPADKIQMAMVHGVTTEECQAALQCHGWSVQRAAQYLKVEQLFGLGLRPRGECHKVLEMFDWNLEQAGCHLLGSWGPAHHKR

[8] = target: Tyrosine-protein kinase SYK (Homo sapiens, UniProt P43405); type: functional
[9] = target: Protein-tyrosine kinase 6 (Homo sapiens, UniProt Q13882); type: functional
Aurora kinase B = Aurora kinase B (Homo sapiens, UniProt Q96GD4); type: functional
Beta-galactosidase = Beta-galactosidase (Escherichia coli, UniProt Q8VNN2); type: functional
Chain of Beta-galactosidase (Q8VNN2 whole entry): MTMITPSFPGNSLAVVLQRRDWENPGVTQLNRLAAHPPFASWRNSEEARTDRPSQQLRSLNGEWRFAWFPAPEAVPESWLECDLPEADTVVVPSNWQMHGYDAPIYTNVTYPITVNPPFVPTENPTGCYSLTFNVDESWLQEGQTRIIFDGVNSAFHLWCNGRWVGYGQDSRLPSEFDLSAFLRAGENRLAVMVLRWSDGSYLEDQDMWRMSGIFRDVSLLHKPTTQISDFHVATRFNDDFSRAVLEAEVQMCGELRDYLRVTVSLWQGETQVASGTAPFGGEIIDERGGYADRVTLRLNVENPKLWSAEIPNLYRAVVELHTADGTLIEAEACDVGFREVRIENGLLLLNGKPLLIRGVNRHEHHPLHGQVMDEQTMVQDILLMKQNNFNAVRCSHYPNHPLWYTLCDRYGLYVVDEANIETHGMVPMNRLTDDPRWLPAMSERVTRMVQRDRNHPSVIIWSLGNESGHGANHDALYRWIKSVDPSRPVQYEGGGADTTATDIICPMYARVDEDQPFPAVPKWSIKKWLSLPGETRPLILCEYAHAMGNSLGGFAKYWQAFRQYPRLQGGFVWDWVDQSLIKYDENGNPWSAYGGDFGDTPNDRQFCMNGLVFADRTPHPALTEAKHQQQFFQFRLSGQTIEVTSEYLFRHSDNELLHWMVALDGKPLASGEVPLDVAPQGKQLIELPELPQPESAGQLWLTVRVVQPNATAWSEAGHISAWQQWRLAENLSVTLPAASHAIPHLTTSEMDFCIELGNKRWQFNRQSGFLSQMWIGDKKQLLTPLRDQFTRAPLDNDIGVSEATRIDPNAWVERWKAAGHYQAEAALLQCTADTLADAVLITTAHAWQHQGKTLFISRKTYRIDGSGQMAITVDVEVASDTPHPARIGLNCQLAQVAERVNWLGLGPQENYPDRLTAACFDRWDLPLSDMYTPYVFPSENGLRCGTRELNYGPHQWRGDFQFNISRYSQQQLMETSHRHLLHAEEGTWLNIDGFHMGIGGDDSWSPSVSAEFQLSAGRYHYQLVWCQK

[10] = target: C-C chemokine receptor type 6 (Homo sapiens, UniProt P51684); experiment: antagonism of CCR6 beta-arrestin recruitment – cell-based, luminescent beta-arrestin readout, dose response (AID 504728); type: functional
Chain of C-C chemokine receptor type 6 (P51684 whole entry): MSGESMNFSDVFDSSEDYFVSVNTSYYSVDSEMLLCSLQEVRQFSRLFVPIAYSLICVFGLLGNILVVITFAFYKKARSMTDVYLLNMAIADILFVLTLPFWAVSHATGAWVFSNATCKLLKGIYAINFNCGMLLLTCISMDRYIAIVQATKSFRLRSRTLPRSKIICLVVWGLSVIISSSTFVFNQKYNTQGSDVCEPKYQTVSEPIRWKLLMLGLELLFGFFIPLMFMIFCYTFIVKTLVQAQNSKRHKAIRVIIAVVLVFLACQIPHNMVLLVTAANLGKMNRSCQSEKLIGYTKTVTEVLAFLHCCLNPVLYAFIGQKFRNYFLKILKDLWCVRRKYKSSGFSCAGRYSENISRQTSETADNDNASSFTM

Nonstructural protein 1 = Nonstructural protein 1 (Influenza A virus, UniProt Q194T2); type: functional, Influenza A virus (A/California/07/2009(H1N1))
Chain of Nonstructural protein 1 (Q194T2 whole entry): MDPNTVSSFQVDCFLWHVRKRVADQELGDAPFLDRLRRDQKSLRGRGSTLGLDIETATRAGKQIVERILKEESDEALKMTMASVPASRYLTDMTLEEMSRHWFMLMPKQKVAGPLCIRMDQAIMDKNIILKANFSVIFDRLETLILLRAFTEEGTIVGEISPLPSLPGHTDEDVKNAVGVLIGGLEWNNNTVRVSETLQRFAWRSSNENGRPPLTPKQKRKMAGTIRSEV

[11] = target: Platelet-derived growth factor receptor beta (Homo sapiens, UniProt P09619); type: functional;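 also: value comes from a kinome panel, with PDGFRB tested as one panel member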
Chain of Platelet-derived growth factor receptor beta (P09619 whole entry): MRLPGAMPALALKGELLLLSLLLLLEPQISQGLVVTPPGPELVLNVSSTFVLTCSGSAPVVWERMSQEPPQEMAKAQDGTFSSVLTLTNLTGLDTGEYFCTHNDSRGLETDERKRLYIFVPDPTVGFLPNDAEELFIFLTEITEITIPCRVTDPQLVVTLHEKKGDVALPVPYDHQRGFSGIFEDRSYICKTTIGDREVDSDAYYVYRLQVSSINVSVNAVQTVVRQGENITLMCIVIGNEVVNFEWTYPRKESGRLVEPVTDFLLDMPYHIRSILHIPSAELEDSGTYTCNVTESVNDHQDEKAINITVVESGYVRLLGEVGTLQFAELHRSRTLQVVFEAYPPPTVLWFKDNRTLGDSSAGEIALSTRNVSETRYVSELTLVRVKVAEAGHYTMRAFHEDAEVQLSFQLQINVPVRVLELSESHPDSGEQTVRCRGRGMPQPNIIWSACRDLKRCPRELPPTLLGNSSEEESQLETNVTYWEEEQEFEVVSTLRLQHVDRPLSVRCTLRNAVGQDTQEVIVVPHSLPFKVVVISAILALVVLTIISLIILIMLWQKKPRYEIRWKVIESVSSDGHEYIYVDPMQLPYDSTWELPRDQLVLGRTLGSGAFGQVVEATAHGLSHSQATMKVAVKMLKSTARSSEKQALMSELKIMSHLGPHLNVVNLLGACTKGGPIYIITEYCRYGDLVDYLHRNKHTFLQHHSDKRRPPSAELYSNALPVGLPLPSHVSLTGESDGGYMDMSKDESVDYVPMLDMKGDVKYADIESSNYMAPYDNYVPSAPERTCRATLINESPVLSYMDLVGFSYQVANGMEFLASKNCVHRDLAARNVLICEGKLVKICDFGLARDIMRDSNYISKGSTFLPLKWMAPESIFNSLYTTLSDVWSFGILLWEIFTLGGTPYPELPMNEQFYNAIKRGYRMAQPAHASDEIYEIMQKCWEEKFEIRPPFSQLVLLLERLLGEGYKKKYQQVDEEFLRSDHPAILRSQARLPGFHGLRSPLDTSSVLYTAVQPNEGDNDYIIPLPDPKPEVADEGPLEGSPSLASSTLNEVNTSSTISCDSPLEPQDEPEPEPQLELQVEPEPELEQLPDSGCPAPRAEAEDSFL

SMILES: COC(=O)CCS(=O)(=O)c1nc(-c2ccccc2)cc(C(F)(F)F)n1
- IC50 [1]: 1.34 µM (active)
- IC50 [2]: 28.4 µM (not active)

SMILES: O=C(O)c1ccc(NC2=C(Cl)C(=O)c3ccccc3C2=O)cc1
- IC50 (Coagulation factor XII): > 50 µM (inactive)
- EC50 (Hexokinase-1): 10.6 µM (active)

SMILES: O=C(O)c1ccc2c3c(ncnc13)-c1ccccc1C2=O
- EC50 [3]: 1.32 µM (active)
- EC50 [4]: 16.1 µM (active)

SMILES: CCOC(=O)c1c2c(n(Cc3ccccc3)c1C)C(=O)C(=O)c1ccccc1-2
- AC50 [5]: 5.03 µM (active)
- AC50 (Paired box protein Pax-8): 1.98 µM (active)

SMILES: Cc1ccc2nccc(NC(=O)Nc3cccc(C(F)(F)F)n3)c2c1
- Ki [6]: > 7.94 µM (inactive)
- Ki [7]: > 1.58 µM (inactive)
- Ki (Activated CDC42 kinase 1): > 3.98 µM (inactive)
- Ki [8]: > 1.58 µM (inactive)
- Ki [9]: 0.398 µM (active)
- Ki (Aurora kinase B): 0.251 µM (active)

SMILES: Cc1c(/N=C2\C=CC(=O)c3ccccc32)c(=O)n(-c2ccccc2)n1C
- EC50 (Beta-galactosidase): > 31.5 µM (inactive)
- IC50 [10]: > 66.6 µM (inactive)
- IC50 (Nonstructural protein 1): 28.7 µM (active)

SMILES: COc1cc2c(cc1F)C(c1ccccc1Cl)=Nc1c(n[nH]c1C)N2 [RG-1530]
- Ki [11]: 0.0501 µM (active)
